Laboratory results from article PMC9556824, “Design, synthesis and computational study of new benzofuran hybrids as dual PI3K/VEGFR2 inhibitors targeting cancer” (Scientific Reports, 2022).
Like-named read-outs stand apart in the source and are kept apart here.

Key:
[1] = system: mammary gland breast cancer (MCF-7); experiment: Antitumor screening using MTT assay; details: for Average of Relative viability of cells (%): MCF7; for viability at 1.56 µM / viability at 3.125 µM / viability at 6.25 µM / viability at 12.5 µM / viability at 25 µM / viability at 50 µM / viability at 100 µM: MCF7, read-out: Average of Relative viability of cells (%)
Description: (§2) Hepatocellular carcinoma (HePG2), mammary gland breast cancer (MCF-7), epithelioid carcinoma cervix cancer (Hela), and human prostate cancer were included on the panel (PC3). […] The cell lines were obtained from the American Type Culture Collection (ATCC) through VACSERA, a Cairo-based holding firm for biological goods and vaccines.
(§3) The panel consisted of hepatocellular carcinoma (HePG2), mammary gland breast cancer (MCF-7), epithelioid carcinoma cervix cancer (Hela) and human prostate cancer (PC3). Human lung fibroblast (WI38) was used to assay the cytotoxicity effect on normal cell. The cell lines were obtained from ATCC via Holding company for biological products and vaccines (VACSERA), Cairo, Egypt. The cytotoxic activity was defined as the concentration of the compound that causes 50% growth inhibition compared with the growth of untreated cells.

[2] = system: Hepatocellular carcinoma (HePG2); experiment: Antitumor screening using MTT assay; type: cell-based, human; details: for IC50: mean ± SD, n = 3, read-out: In-vitro cytotoxicity IC50 (µM) HePG2; for viability at 1.56 µM / viability at 3.125 µM / viability at 6.25 µM / viability at 12.5 µM / viability at 25 µM / viability at 50 µM / viability at 100 µM: read-out: Average of Relative viability of cells (%)
Description: as §2, §3

[3] = system: epithelioid carcinoma cervix cancer (Hela); experiment: Antitumor screening using MTT assay; details: for IC50: read-out: In-vitro cytotoxicity IC50 (µM) Hela; for viability at 1.56 µM / viability at 3.125 µM / viability at 6.25 µM / viability at 12.5 µM / viability at 25 µM / viability at 50 µM / viability at 100 µM: read-out: Average of Relative viability of cells (%)
Description: as §2, §3

[4] = system: human prostate cancer (PC3); experiment: Antitumor screening using MTT assay; details: for IC50: read-out: In-vitro cytotoxicity IC50 (µM) PC3; for viability at 1.56 µM / viability at 3.125 µM / viability at 6.25 µM / viability at 12.5 µM / viability at 25 µM / viability at 50 µM / viability at 100 µM: read-out: Average of Relative viability of cells (%)
Description: as §2, §3

[5] = system: human lung fibroblast (WI38); experiment: In vitro cytotoxicity against human normal cell line (MTT); type: cell-based; details: for IC50: mean ± SD, n = 3; for Average of Relative viability of cells (%): WI38
Description: (§1) The anticancer agent's selectivity for cancer cells is a critical consideration for any researcher, as it can decrease the molecule's adverse effects on normal human cells.

human PI3Kα = human PI3Kα (Homo sapiens, UniProt P42336); experiment: Human PI3Kα enzyme inhibition assay (ELISA)
Description: PI3Kα and VEGFR-2 activity were verified by enzyme-linked immunosorbent assay (ELISA) assay technique. […] Then, the mean absorbance of each group of standard and tested compounds was determined. The standard curve was drawn on log–log paper with the absorbance on the Y-axis and the standard concentration on the X-axis.

[6] = system: HePG2, MCF-7, Hela, PC3 cell lines; experiment: Antitumor screening using MTT assay, statements across several cell lines; type: cell-based, human; details: HePG2, MCF-7, Hela, PC3
Description: as §2, §3

[7] = In vitro cytotoxicity against human normal cell line (MTT); type: cell-based; details: human, WI38 human lung fibroblast cells (normal cell line), WI38, read-out: Average of Relative viability of cells (%); for viability at 1.56 µM: Conc. 1.56 µM; for viability at 3.125 µM: Conc. 3.125 µM; for viability at 6.25 µM: Conc. 6.25 µM; for viability at 12.5 µM: Conc. 12.5 µM; for viability at 25 µM: Conc. 25 µM; for viability at 50 µM: Conc. 50 µM; for viability at 100 µM: Conc. 100 µM
Description: as §1

[8] = Homo sapiens, MCF7, read-out: In-vitro cytotoxicity IC50 (µM) MCF-7
[9] = Homo sapiens, WI-38, human normal cell line WI38

human PI3Kα, sequence (P42336 whole entry): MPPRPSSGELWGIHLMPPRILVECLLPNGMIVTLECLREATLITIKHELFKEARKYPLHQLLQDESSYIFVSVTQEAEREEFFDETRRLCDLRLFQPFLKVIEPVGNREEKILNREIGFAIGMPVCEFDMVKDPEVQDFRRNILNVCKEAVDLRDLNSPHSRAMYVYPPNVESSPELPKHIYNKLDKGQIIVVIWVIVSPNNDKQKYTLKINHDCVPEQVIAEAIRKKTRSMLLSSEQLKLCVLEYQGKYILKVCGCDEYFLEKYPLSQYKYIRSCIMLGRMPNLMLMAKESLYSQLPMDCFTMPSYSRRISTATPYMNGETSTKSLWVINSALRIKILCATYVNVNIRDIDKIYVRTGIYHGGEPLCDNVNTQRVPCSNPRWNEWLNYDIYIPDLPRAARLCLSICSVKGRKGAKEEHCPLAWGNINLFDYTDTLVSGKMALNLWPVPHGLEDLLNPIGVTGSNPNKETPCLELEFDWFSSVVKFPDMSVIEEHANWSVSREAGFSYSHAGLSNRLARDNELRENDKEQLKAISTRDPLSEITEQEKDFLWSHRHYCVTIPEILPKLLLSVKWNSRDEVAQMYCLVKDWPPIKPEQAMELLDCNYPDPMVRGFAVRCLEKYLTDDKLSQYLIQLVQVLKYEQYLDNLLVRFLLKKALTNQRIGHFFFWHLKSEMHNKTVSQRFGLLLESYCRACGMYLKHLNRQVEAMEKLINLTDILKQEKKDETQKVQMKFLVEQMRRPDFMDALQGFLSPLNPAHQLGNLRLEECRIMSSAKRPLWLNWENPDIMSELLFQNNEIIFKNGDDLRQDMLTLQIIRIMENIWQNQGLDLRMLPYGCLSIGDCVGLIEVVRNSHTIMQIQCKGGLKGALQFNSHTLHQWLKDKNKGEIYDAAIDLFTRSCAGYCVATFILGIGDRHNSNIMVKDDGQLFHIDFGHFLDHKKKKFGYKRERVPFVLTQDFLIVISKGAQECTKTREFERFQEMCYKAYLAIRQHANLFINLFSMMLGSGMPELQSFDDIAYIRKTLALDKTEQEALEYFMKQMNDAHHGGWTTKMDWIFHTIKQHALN
human PI3Kα, sequence (P27986 whole entry partner): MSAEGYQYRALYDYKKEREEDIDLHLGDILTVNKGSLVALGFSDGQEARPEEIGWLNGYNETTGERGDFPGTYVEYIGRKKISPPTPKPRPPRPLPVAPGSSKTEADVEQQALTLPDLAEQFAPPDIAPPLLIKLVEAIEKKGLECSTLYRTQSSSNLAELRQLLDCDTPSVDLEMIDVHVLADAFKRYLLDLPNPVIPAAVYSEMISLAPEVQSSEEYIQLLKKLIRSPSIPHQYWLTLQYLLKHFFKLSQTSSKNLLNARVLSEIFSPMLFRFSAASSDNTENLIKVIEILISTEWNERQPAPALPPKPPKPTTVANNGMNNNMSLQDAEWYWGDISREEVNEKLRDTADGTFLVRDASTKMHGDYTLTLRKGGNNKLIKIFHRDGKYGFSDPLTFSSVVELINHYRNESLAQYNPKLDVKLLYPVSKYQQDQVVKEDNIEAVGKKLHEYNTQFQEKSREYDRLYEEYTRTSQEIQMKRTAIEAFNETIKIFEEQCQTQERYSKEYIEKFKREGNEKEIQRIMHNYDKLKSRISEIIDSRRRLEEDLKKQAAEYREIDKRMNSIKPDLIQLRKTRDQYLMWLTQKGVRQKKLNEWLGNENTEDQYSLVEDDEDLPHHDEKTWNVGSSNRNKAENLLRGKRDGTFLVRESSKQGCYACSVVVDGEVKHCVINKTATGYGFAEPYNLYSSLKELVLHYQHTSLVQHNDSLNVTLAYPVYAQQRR

## C/C(=N\N=C\c1ccc(O)cc1)c1cc2ccccc2o1 [Compound 11, (E)-1-[1-(benzofuran-2-yl)ethylidene]-2-((E)-4-hydroxybenzylidene)hydrazine]
[1]; [8]
  IC50: > 100 µM
[2]; Homo sapiens
  IC50: 84.9 ± 3.2 µM
[3]; Homo sapiens, HeLa
  IC50: 89.3 ± 3.2 µM
other
  melting point: 154 to 156 °C
[4]; Homo sapiens
  IC50: > 100 µM
[5]; [9]
  IC50: 43.2 ± 2.9 µM

## O=c1cc(N2CCOCC2)oc2c(-c3ccccc3)cccc12 [LY294002, reference compound]
Human PI3Kα; conc 0.1 (unit not given)
  PI3K-α %inh: 8.66%
Human PI3Kα; conc 1 (unit not given)
  PI3K-α %inh: 21.2%
Human PI3Kα; conc 10 (unit not given)
  PI3K-α %inh: 54.8%
Human PI3Kα; conc 100 (unit not given)
  PI3K-α %inh: 76.7%

## 2-(benzofuran-2-yl)-1-(4-methylpiperazin-1-yl)ethanethione [Compound 3]
[1]; Conc. 1.56 µM
  Average of Relative viability of cells (%): 100%
[1]; Conc. 3.125 µM
  Average of Relative viability of cells (%): 100%
[1]; Conc. 6.25 µM
  Average of Relative viability of cells (%): 94.7%
[1]; Conc. 12.5 µM
  Average of Relative viability of cells (%): 72.4%
[1]; Conc. 25 µM
  Average of Relative viability of cells (%): 61.3%
[1]; Conc. 50 µM
  Average of Relative viability of cells (%): 47.6%
[1]; Conc. 100 µM
  Average of Relative viability of cells (%): 33.9%
[1]; read-out: In-vitro cytotoxicity IC50 (µM) MCF-7, MCF-7, mean ± SD, n = 3
  IC50: 45.1 ± 2.9 µM
[2]; Conc. 1.56 µM
  Average of Relative viability of cells (%): 100%
[2]; Conc. 3.125 µM
  Average of Relative viability of cells (%): 100%
[2]; Conc. 6.25 µM
  Average of Relative viability of cells (%): 82.4%
[2]; Conc. 12.5 µM
  Average of Relative viability of cells (%): 76.1%
[2]; Conc. 25 µM
  Average of Relative viability of cells (%): 50.2%
[2]; Conc. 50 µM
  Average of Relative viability of cells (%): 42.8%
[2]; Conc. 100 µM
  Average of Relative viability of cells (%): 29.5%
[2]
  IC50: 34.8 ± 2.5 µM
[3]; Hela, Conc. 1.56 µM
  Average of Relative viability of cells (%): 100%
[3]; Hela, Conc. 3.125 µM
  Average of Relative viability of cells (%): 100%
[3]; Hela, Conc. 6.25 µM
  Average of Relative viability of cells (%): 97.1%
[3]; Hela, Conc. 12.5 µM
  Average of Relative viability of cells (%): 75.9%
[3]; Hela, Conc. 25 µM
  Average of Relative viability of cells (%): 64.8%
[3]; Hela, Conc. 50 µM
  Average of Relative viability of cells (%): 50.7%
[3]; Hela, Conc. 100 µM
  Average of Relative viability of cells (%): 36.1%
[3]; Hela, mean ± SD, n = 3
  IC50: 51.4 ± 3.1 µM
[4]; PC3, Conc. 1.56 µM
  Average of Relative viability of cells (%): 100%
[4]; PC3, Conc. 3.125 µM
  Average of Relative viability of cells (%): 100%
[4]; PC3, Conc. 6.25 µM
  Average of Relative viability of cells (%): 100%
[4]; PC3, Conc. 12.5 µM
  Average of Relative viability of cells (%): 92.8%
[4]; PC3, Conc. 25 µM
  Average of Relative viability of cells (%): 71.9%
[4]; PC3, Conc. 50 µM
  Average of Relative viability of cells (%): 59.5%
[4]; PC3, Conc. 100 µM
  Average of Relative viability of cells (%): 37.5%
[4]; PC3, mean ± SD, n = 3
  IC50: 65 ± 3.2 µM
[6]
  anticancer activity towards the four / all assessed cell lines (grade): weak (51–100 (weak))
[5]; Conc. 1.56 µM
  Average of Relative viability of cells (%): 100%
[5]; Conc. 3.125 µM
  Average of Relative viability of cells (%): 100%
[5]; Conc. 6.25 µM
  Average of Relative viability of cells (%): 97.0%
[5]; Conc. 12.5 µM
  Average of Relative viability of cells (%): 85.3%
[5]; Conc. 25 µM
  Average of Relative viability of cells (%): 71.8%
[5]; Conc. 50 µM
  Average of Relative viability of cells (%): 59.2%
[5]; Conc. 100 µM
  Average of Relative viability of cells (%): 47.4%
[5]; human normal cell line WI38
  IC50: 78.5 ± 3.8 µM

## O=C(/C=C/N1CCCCC1)c1cc2ccccc2o1 [Compound 5, (E)-1-(benzofuran-2-yl)-3-(piperidin-1-yl)prop-2-en-1-one]
[1]; Homo sapiens
  viability at 1.56 µM: 100%
  viability at 3.125 µM: 96.2%
  viability at 6.25 µM: 72.1%
  viability at 12.5 µM: 54.9%
  viability at 25 µM: 41.8%
  viability at 50 µM: 32.5%
  viability at 100 µM: 20.4%
[1]; [8]
  IC50: 19.9 ± 1.5 µM
[2]; Homo sapiens, Conc. 1.56 µM
  viability at 1.56 µM: 100%
[2]; Homo sapiens, Conc. 3.125 µM
  viability at 3.125 µM: 76.8%
[2]; Homo sapiens, Conc. 6.25 µM
  viability at 6.25 µM: 65%
[2]; Homo sapiens, Conc. 12.5 µM
  viability at 12.5 µM: 42.3%
[2]; Homo sapiens, Conc. 25 µM
  viability at 25 µM: 37.2%
[2]; Homo sapiens, Conc. 50 µM
  viability at 50 µM: 24%
[2]; Homo sapiens, Conc. 100 µM
  viability at 100 µM: 15.3%
[2]; Homo sapiens
  IC50: 12.6 ± 1 µM
[3]; Homo sapiens, HeLa
  viability at 1.56 µM: 100%
  viability at 3.125 µM: 96.6%
  viability at 6.25 µM: 79.3%
  viability at 12.5 µM: 62.9%
  viability at 25 µM: 51.4%
  viability at 50 µM: 38.1%
  viability at 100 µM: 26.3%
  IC50: 28.3 ± 2.2 µM
other
  melting point: 136 to 138 °C
[4]; Homo sapiens
  viability at 1.56 µM: 100%
  viability at 3.125 µM: 100%
  viability at 6.25 µM: 92.7%
  viability at 12.5 µM: 67.2%
  viability at 25 µM: 58.1%
  viability at 50 µM: 47.8%
  viability at 100 µM: 32.9%
  IC50: 41.5 ± 2.6 µM
[7]
  viability at 1.56 µM: 100%
  viability at 3.125 µM: 100%
  viability at 6.25 µM: 100%
  viability at 12.5 µM: 91.8%
  viability at 25 µM: 72.3%
  viability at 50 µM: 57.1%
  viability at 100 µM: 38.2%
[5]; [9]
  IC50: 64 ± 3.1 µM

## C\C(=N/N=C/C=C/c1ccccc1)c1cc2ccccc2o1 [Compound 12]
[1]; Homo sapiens
  viability at 1.56 µM: 100%
  viability at 3.125 µM: 100%
  viability at 6.25 µM: 94.7%
  viability at 12.5 µM: 81.8%
  viability at 25 µM: 70.2%
  viability at 50 µM: 57.1%
  viability at 100 µM: 43.2%
[1]; [8]
  IC50: 68.4 ± 3.6 µM
[2]; Homo sapiens, Conc. 1.56 µM
  viability at 1.56 µM: 100%
[2]; Homo sapiens, Conc. 3.125 µM
  viability at 3.125 µM: 100%
[2]; Homo sapiens, Conc. 6.25 µM
  viability at 6.25 µM: 100%
[2]; Homo sapiens, Conc. 12.5 µM
  viability at 12.5 µM: 91.3%
[2]; Homo sapiens, Conc. 25 µM
  viability at 25 µM: 70.5%
[2]; Homo sapiens, Conc. 50 µM
  viability at 50 µM: 54%
[2]; Homo sapiens, Conc. 100 µM
  viability at 100 µM: 39.4%
[2]; Homo sapiens
  IC50: 62 ± 3.2 µM
[3]; Homo sapiens, HeLa
  viability at 1.56 µM: 100%
  viability at 3.125 µM: 100%
  viability at 6.25 µM: 86.6%
  viability at 12.5 µM: 72.3%
  viability at 25 µM: 59.2%
  viability at 50 µM: 41.8%
  viability at 100 µM: 34.1%
  IC50: 39.8 ± 2.7 µM
other
  melting point: 141 to 143 °C
[4]; Homo sapiens
  viability at 1.56 µM: 100%
  viability at 3.125 µM: 100%
  viability at 6.25 µM: 98.4%
  viability at 12.5 µM: 86.6%
  viability at 25 µM: 71.7%
  viability at 50 µM: 55%
  viability at 100 µM: 47.3%
  IC50: 74.4 ± 3.9 µM
[7]
  viability at 1.56 µM: 100%
  viability at 3.125 µM: 100%
  viability at 6.25 µM: 91.3%
  viability at 12.5 µM: 78.1%
  viability at 25 µM: 61.9%
  viability at 50 µM: 52.5%
  viability at 100 µM: 41%
[5]; [9]
  IC50: 56.5 ± 3.2 µM
